A short description of this series: Henry solubility constant Hcp at 298.15 K (mol/(m3 Pa)).
The mark [1] stands for this setting: reference: Hawthorne et al. (1985).
Where [2] appears, read: reference: Kawamoto and Urano (1989).
The mark [3] stands for this setting: reference: McFall et al. (2020).
[4] abbreviates: reference: Cetin and Odabasi (2005).
Setting [5] is: reference: Charles and Destaillats (2005).
Where [6] appears, read: reference: Khan and Brimblecombe (1992).
The mark [7] stands for this setting: reference: von Hartungen et al. (2004).
Setting [8] is: reference: Tsonopoulos and Wilson (1983).
Setting [9] is: reference: Jönsson et al. (1982).
Setting [10] is: reference: Copolovici and Niinemets (2005).
The mark [11] stands for this setting: reference: Schuhfried et al. (2015).

As to `Cc1ccc(C)c(O)c1` [1-hydroxy-2,5-dimethylbenzene], the “Henry solubility constant Hcp” value (reference: Dohnal and Fenclová (1995)) was determined as 7.5.
For `Cc1cccc(C)n1` [2,6-dimethylpyridine], the “Henry solubility constant Hcp” value under setting [1] worked out at 0.66.
Regarding `CCCCCC(C)=O` [2-heptanone], the “Henry solubility constant Hcp” value was determined as 0.068 (reference: Chai et al. (2005)) and 0.062 (reference: Kim et al. (2000)).
`ClC(Cl)(Cl)C(Cl)(Cl)Cl` [hexachloroethane]: the “Henry solubility constant Hcp” value was 0.0034 (reference: Munz and Roberts (1986)); 0.0025 (reference: Munz and Roberts (1987)); 0.001 (reference: Warner et al. (1980)).
Consider `CC(CCl)OC(C)CCl` (centres undefined) [bis-(2-chloroisopropyl) ether], for which, under setting [2], the “Henry solubility constant Hcp” value stood at 0.42.
For `CCCCCC(=O)OCC` [ethyl hexanoate], the “Henry solubility constant Hcp” value is, setting by setting: (reference: Aprea et al. (2007)) 0.014; (reference: Landy et al. (1995)) 0.0094; (reference: Landy et al. (1996)) 0.016.
For `FCCl` [chlorofluoromethane], the “Henry solubility constant Hcp” value (reference: Boggs and Buck (1958)) was found to be 0.0015.
Regarding `CCCc1ccc(O)c(OC)c1` [4-propylguaiacol], the “Henry solubility constant Hcp” value under setting [3] amounted to 4.3.
Consider `C=CC(C)(O)CCC=C(C)C` (centres undefined) [3,7-dimethyl-1,6-octadien-3-ol], for which the “Henry solubility constant Hcp” value is, setting by setting: (reference: Copolovici and Niinemets (2007)) 0.38; (reference: Leng et al. (2013)) 0.2.
On to `CCCCO[N+](=O)[O-]` [1-butyl nitrate], for which the “Henry solubility constant Hcp” value by setting is: (reference: Hauff et al. (1998)) 0.0063; (reference: Luke et al. (1989)) 0.01.
With `O=C1CCCC1` [cyclopentanone], the “Henry solubility constant Hcp” value under setting [1] worked out at 0.82.
`[O][Cl+][O-]` [chlorine dioxide]: the “Henry solubility constant Hcp” value by setting is: (reference: Bigorgne (1947)) 0.0066; (reference: Holst (1944)) 0.0097; (reference: Ishi (1958)) 0.011; (reference: Kepinski and Trzeszczynski (1964)) 0.01; (reference: Taube and Dodgen (1949)) 0.01.
Turning to `CCCC(C)O[N+](=O)[O-]` (centres undefined) [2-pentyl nitrate], the “Henry solubility constant Hcp” value (reference: Hauff et al. (1998)) came to 0.0037.
As for `ClC1=C(Cl)[C@]2(Cl)[C@H]3[C@H](Cl)[C@@H](Cl)C[C@H]3[C@@]1(Cl)C2(Cl)Cl` [trans-chlordane], the “Henry solubility constant Hcp” value (reference: Jantunen and Bidleman (2006)) was determined as 0.034.
As for `CCCCCCC(=O)O` [heptanoic acid], the “Henry solubility constant Hcp” value (reference: Kim and Kim (2016)) was 15.
Regarding `Cc1ccco1` [2-methylfuran], the “Henry solubility constant Hcp” value (reference: Wieland et al. (2015)) amounted to 0.0015.
Take `Brc1ccc(Oc2c(Br)cc(Br)cc2Br)c(Br)c1` [2,2',4,4',6-pentabromodiphenyl ether]: the “Henry solubility constant Hcp” value worked out at 3.8 under setting [4], 0.19 under setting [5] and 3.6 (reference: Long et al. (2017)).
As to `[Ar]` [argon], the “Henry solubility constant Hcp” value runs as follows: (reference: Ashton et al. (1968)) 1.4e-05; (reference: Cosgrove and Walkley (1981)) 1.4e-05; (reference: Crovetto et al. (1982)) 1.4e-05; (reference: Friedman (1954)) 1.4e-05; (reference: Krause and Benson (1989)) 1.4e-05; (reference: Lannung (1930)) 1.4e-05. For the same compound, the “Henry solubility constant Hcp” value was determined as 1.3e-05 (reference: Morrison and Johnstone (1954)); 1.4e-05 (reference: Murray and Riley (1970)); 1.4e-05 (reference: Park et al. (1982)); 1.4e-05 (reference: Potter II and Clynne (1978)); 1.4e-05 (reference: Rettich et al. (1992)); 1.4e-05 (reference: Shoor et al. (1969)). Also, the “Henry solubility constant Hcp” value runs as follows: (reference: Winkler (1906)) 1.5e-05; (reference: von Antropoff (1910)) 1.6e-05.
In the case of `CC(C)CC(=O)O` [3-methylbutanoic acid], the “Henry solubility constant Hcp” value was found to be 12 (reference: Amoore and Buttery (1978)); 12 under setting [6]; 12 (reference: Khan et al. (1995)); 27 (reference: Kim and Kim (2016)); 11 under setting [7].
As for `O=CC(=O)O` [oxoethanoic acid], the “Henry solubility constant Hcp” value (reference: Ip et al. (2009)) is 110.
With `COc1ccccc1` [methoxybenzene], the “Henry solubility constant Hcp” value (reference: Brockbank et al. (2013)) stood at 0.029.
Consider `C[Si](C)(C)O[Si](C)(C)O[Si](C)(C)O[Si](C)(C)C` [decamethyltetrasiloxane], for which the “Henry solubility constant Hcp” value (reference: Xu and Kropscott (2014)) stood at 1.4e-07.
On to `C=CCc1ccc(O)c(OC)c1` [2-methoxy-4-(2-propenyl)-phenol], for which, under setting [3], the “Henry solubility constant Hcp” value amounted to 9.2.
On to `N#Cc1ccccc1` [benzenenitrile], for which the “Henry solubility constant Hcp” value (reference: Lee et al. (2013)) came to 0.29.
For the compound `ClCC(Cl)Cl` [1,1,2-trichloroethane], the “Henry solubility constant Hcp” value (reference: Bobadilla et al. (2003)) is 0.012.
Take `C1CCCCC1` [cyclohexane]: the “Henry solubility constant Hcp” value by setting is: under setting [8], 5.4e-05; (reference: Tucker et al. (1981)) 5.4e-05.
As to `CCCCCC(=O)O` [hexanoic acid], the “Henry solubility constant Hcp” value came to 13 under setting [6]; 13 (reference: Khan et al. (1995)); 9.9 (reference: Kim and Kim (2016)); 7.5 under setting [7].
As to `CCCCC` [pentane], the “Henry solubility constant Hcp” value by setting is: (reference: Jou and Mather (2000)) 8.7e-06; under setting [9], 8.2e-06.
With `CC(=O)OCC(F)(F)F` [2,2,2-trifluoroethyl ethanoate], under “reference: Kutsuna et al. (2004)”, the “Henry solubility constant Hcp” value came out at 0.0057.
For the compound `C=C(C)[C@@H]1CC=C(C)CC1` [(S)-1-methyl-4-(1-methylethenyl)-cyclohexene], the “Henry solubility constant Hcp” value worked out at 0.00035 under setting [10] and 0.00037 under setting [11].
For `C=C(C)[C@H]1CC=C(C)CC1` [(R)-1-methyl-4-(1-methylethenyl)-cyclohexene], in that order: 0.00035 and 0.00038.
Consider `CCCCCC` [hexane], for which the “Henry solubility constant Hcp” value reads like this: under setting [9], 5.9e-06; (reference: Park et al. (1997)) 7.4e-06; under setting [8], 6.7e-06.
Consider `CCCCCCCCC=O` [nonanal], for which the “Henry solubility constant Hcp” value (reference: Buttery et al. (1965)) was found to be 0.071.
In the case of `CCCCCCCC(=O)OC` [methyl octanoate], the “Henry solubility constant Hcp” value (reference: Aprea et al. (2007)) was 0.0099.
Take `FC(Cl)C(F)(F)C(F)(F)Cl` (centres undefined) [1,3-dichloro-1,1,2,2,3-pentafluoro-propane]: the “Henry solubility constant Hcp” value (reference: Kutsuna (2013)) was 0.00011.
Turning to `Brc1ccc(Oc2ccc(Br)cc2Br)c(Br)c1` [2,2',4,4'-tetrabromodiphenyl ether], the “Henry solubility constant Hcp” value reads like this: under setting [4], 0.87; under setting [5], 0.17; (reference: Long et al. (2017)) 0.91.
Turning to `CN(C)CCOCCO` [dimethylaminoethoxyethanol], under “reference: Nguyen (2013)”, the “Henry solubility constant Hcp” value was 4300.
The same measure, in the same setting: the value for `C1CNCCN1` [1,4-diazacyclohexane] was 4500.
Regarding `CCN(CC)C(=O)SCc1ccc(Cl)cc1` [S-(4-chlorobenzyl) diethylthiocarbamate], under setting [2], the “Henry solubility constant Hcp” value came to 4.9.
Consider `CCCCc1ccccc1` [butylbenzene], for which, where the note is “reference: Perlinger et al. (1993)”, the “Henry solubility constant Hcp” value worked out at 0.00062.
Take `CCCC` [butane]: the “Henry solubility constant Hcp” value reads like this: (reference: Ben-Naim and Battino (1985)) 1.2e-05; (reference: Carroll et al. (1997)) 1.3e-05; (reference: McAuliffe (1963)) 1.1e-05; (reference: Morrison and Billett (1952)) 1.1e-05; (reference: Wetlaufer et al. (1964)) 1.3e-05.
`CC(=O)C(C)(C)C` [3,3-dimethyl-2-butanone]: the “Henry solubility constant Hcp” value (reference: Hovorka et al. (2019)) worked out at 0.043.
Take `C=CC(C)=O` [3-buten-2-one]: the “Henry solubility constant Hcp” value stood at 0.21 (reference: Allen et al. (1998)); 0.4 (reference: Iraci et al. (1999)); 0.26 (reference: Ji and Evans (2007)).
With `Fc1c(F)c(F)c(F)c(F)c1F` [hexafluorobenzene], for the setting “reference: Schröder et al. (2011)”, the “Henry solubility constant Hcp” value turned out to be 0.00029.
Take `CC/C=C/C[C@@H]1C(=O)CC[C@H]1CC(=O)OC` [methyl jasmonate]: the “Henry solubility constant Hcp” value (reference: Karl et al. (2008)) came to 50.
For `CCC(C)O` (centres undefined) [2-butanol], the “Henry solubility constant Hcp” value is, setting by setting: (reference: Butler et al. (1935)) 0.96; (reference: Snider and Dawson (1985)) 1.1.
